According to patent US20250290117A1, “MOLECULAR PHENOTYPIC ANTIMICROBIAL SUSCEPTIBILITY TESTING” (priority 2024, published 2025):

Columns and labels:
[1] = system: pathogens of clinical samples; assay: Molecular phenotypic antimicrobial susceptibility test of clinical samples, direct PCR without a separate DNA purification step (Table 6); assay type: cell-based
Outline: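 Growth of clinical isolates under antimicrobials held at breakpoint concentrations was scored by semi-quantitative PCR against drug-free control wells. Exposure ran 12-16 hours from a 0.5 McFarland inoculum.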

S. aureus = assay: Molecular phenotypic antimicrobial susceptibility test with direct PCR (no extraction DNA purification step); assay type: cell-based, Staphylococcus aureus; details: for Ct at Sensitive Breakpoint: S. aureus isolate NR-46412 HIP13170, Ct at control (average) 18.824; for Molecular Antimicrobial Susceptibility Result: S. aureus isolate NR-46412 HIP13170, at sensitive breakpoint
Description: Detection of Molecular Phenotypic Antimicrobial Susceptibility. Disclosed herein are the methods for the detection of phenotypic antimicrobial susceptibility via molecular methods. The present invention describes how a specimen 100 with a known microbial load is incubated and then exposed to a panel of antimicrobial agents to determine sensitivity (prevention of growth) or resistance (allowance of growth) to the specific antimicrobial agents tested utilizing molecular methods.
Sample Collection. Specimens 100 are collected from patients using sterile collection processes that are employed in routine clinical care. Specimens are transported to the testing facility in boric acid preservative.
Preparation of the Specimens for Testing. […] The process for pathogen isolation includes steps of harvesting the pathogen (e.g., via centrifugation), isolating pathogen DNA via a DNA isolation and/or purification kit, and performing PCR on the pathogen DNA via PCR components (e.g., primers, enzymes, buffers) as would be known to the skilled artisan. […] This aliquot is used for antimicrobial susceptibility testing if indicated based on the pathogen detection results. […] Specimens 100 with lower pathogen loads could also be utilized in the antibiotic susceptibility phase of testing with or without a longer incubation period.
Preparation of Antimicrobial Susceptibility Testing Plates. Antimicrobial solutions are prepared at known concentrations. The specific antimicrobials and their concentrations are selected based on the pathogen of interest and the described antimicrobial resistance breakpoints for that specimen pathogen and antimicrobial combination. These antimicrobials have been selected based on those commonly utilized by healthcare providers in routine clinical care for the specific type of suspected infection. The number and types of antimicrobials utilized can be customized based on the infection source, pathogen detected, patient-specific factors such as allergies or other health conditions (e.g., chronic kidney disease or concurrent medication use), or healthcare provider preferences such as antimicrobial availability or cost.
The antimicrobial solutions are prepared in liquid culture media (such as Muller Hinton Broth) to achieve the desired antimicrobial concentration and are then stored at −80° C. until use. For a given specimen, each antimicrobial is tested at a single or multiple antimicrobial concentration(s) which is its established breakpoints for sensitivity. The antimicrobial solutions are prepared and plated out for each specific pathogen. […] This allows for evaluation of pathogen load when no antimicrobial is present.
Specimen Exposure to Antimicrobial Agents. The 1 mL aliquot of the specimen 100 previously mixed with culture media and incubated is obtained. Using optical density measurements as a guide, the specimen 100 is diluted to 0.5 McFarland.
Antimicrobial exposure plates are typically placed into an incubator for 12-16 hours.
Nucleic Acid Amplification of Antimicrobial Agent Exposed Pathogens. The antimicrobial exposure plate is removed after the period of incubation. The specimen then undergoes a purification or lysis step. For example, the specimen may undergo a purification step (e.g., magnetic bead-based or other separation protocol to isolate genetic material). In another example, the specimen may undergo a cell lysis step. For example, buffer (e.g., lysis buffer) may be added and incubated in the thermal cycler for preparation for direct PCR. Next, the specimen may undergo a polymerase chain reaction (PCR) testing protocol, whereby a semi-quantitative PCR method is utilized. This may be completed either with or without a specific extraction protocol step. The pathogens can be individually targeted and detected, or a universal genetic sequence can be utilized to detect the antimicrobial susceptibility of the specimen as a whole.

[2] = E. coli, clinical sample of r10-r24
[3] = E. coli, clinical sample of r10-r24, Ct control avg 12.97
[4] = E. coli, clinical sample of r158-r172
[5] = E. coli, clinical sample of r158-r172, Ct control avg 12.894
[6] = E. faecalis, clinical sample of r93-r99
[7] = E. faecalis, clinical sample of r93-r99, Ct control avg 22.011
[8] = E. faecalis, clinical sample of r100-r106, Ct control avg 21.027
[9] = E. faecalis, clinical sample of r107-r113, Ct control avg 20.529
[10] = E. faecalis, clinical sample of r114-r120
[11] = E. faecalis, clinical sample of r114-r120, Ct control avg 20.909
[12] = E. faecalis, clinical sample of r151-r157
[13] = E. faecalis, clinical sample of r151-r157, Ct control avg 18.551
[14] = K. aerogenes, clinical sample of r136-r150
[15] = K. aerogenes, clinical sample of r136-r150, Ct control avg 13.854
[16] = K. pneumoniae, clinical sample of r121-r135
[17] = K. pneumoniae, clinical sample of r121-r135, Ct control avg […]
[18] = M. morganii, clinical sample of r55-r69
[19] = M. morganii, clinical sample of r70-r84
[20] = M. morganii, clinical sample of r70-r84, Ct control avg 11.677
[21] = P. mirabilis, clinical sample of r25-r39
[22] = P. mirabilis, clinical sample of r25-r39, Ct control avg 11.801
[23] = P. mirabilis, clinical sample of r40-r54
[24] = P. mirabilis, clinical sample of r40-r54, Ct control avg 10.06
[25] = S. aureus, clinical sample of r85-r92
[26] = S. aureus, clinical sample of r85-r92, Ct control avg 20.309
[27] = M. morganii, clinical sample of r55-r69, Ct control avg 12.09

C[C@H]1COc2c(N3CCN(C)CC3)c(F)cc3c(=O)c(C(=O)O)cn1c23 [Levofloxacin]
Molecular Antibiotic Susceptibility Result [1, 2]: Resistant | Ct [1, 3]: 12.289 | Molecular Antibiotic Susceptibility Result [1, 4]: Sensitive (Antimicrobial wells with pathogen load detected below the control wells (typically >2 cycle thresholds later) may be reported as Sensitive) | Ct [1, 5]: 29.603 | Molecular Antibiotic Susceptibility Result [1, 6]: Sensitive (Antimicrobial wells with pathogen load detected below the control wells (typically >2 cycle thresholds later) may be reported as Sensitive) | Ct [1, 7]: 33.342 | Ct [1, 8]: 34.507 | Ct [1, 9]: 28.107 | Molecular Antibiotic Susceptibility Result [1, 10]: Sensitive (Antimicrobial wells with pathogen load detected below the control wells (typically >2 cycle thresholds later) may be reported as Sensitive) | Ct [1, 11]: 30.072 | Molecular Antibiotic Susceptibility Result [1, 12]: Sensitive (Antimicrobial wells with pathogen load detected below the control wells (typically >2 cycle thresholds later) may be reported as Sensitive) | Ct [1, 13]: 35.719 | Molecular Antibiotic Susceptibility Result [1, 14]: Sensitive (Antimicrobial wells with pathogen load detected below the control wells (typically >2 cycle thresholds later) may be reported as Sensitive) | Ct [1, 15]: 33.354 | Molecular Antibiotic Susceptibility Result [1, 16]: Sensitive (Antimicrobial wells with pathogen load detected below the control wells (typically >2 cycle thresholds later) may be reported as Sensitive) | Ct [1, 17]: 32.085 | Molecular Antibiotic Susceptibility Result [1, 18]: Sensitive (Antimicrobial wells with pathogen load detected below the control wells (typically >2 cycle thresholds later) may be reported as Sensitive) | Molecular Antibiotic Susceptibility Result [1, 19]: Sensitive (Antimicrobial wells with pathogen load detected below the control wells (typically >2 cycle thresholds later) may be reported as Sensitive) | Ct [1, 20]: 29.614 | Molecular Antibiotic Susceptibility Result [1, 21]: Sensitive (Antimicrobial wells with pathogen load detected below the control wells (typically >2 cycle thresholds later) may be reported as Sensitive) | Ct [1, 22]: 25.775 | Molecular Antibiotic Susceptibility Result [1, 23]: Sensitive (Antimicrobial wells with pathogen load detected below the control wells (typically >2 cycle thresholds later) may be reported as Sensitive) | Ct [1, 24]: 30.018 | Molecular Antibiotic Susceptibility Result [1, 25]: Resistant | Ct [1, 26]: 16.32 | Ct at Sensitive Breakpoint (S. aureus): 18.264 | Molecular Antimicrobial Susceptibility Result (S. aureus): Resistant

O=C1CN(/N=C/c2ccc([N+](=O)[O-])o2)C(=O)N1 [Nitrofurantoin]
Molecular Antibiotic Susceptibility Result [1, 2]: Sensitive (Antimicrobial wells with pathogen load detected below the control wells (typically >2 cycle thresholds later) may be reported as Sensitive) | Ct [1, 3]: 24.883 | Molecular Antibiotic Susceptibility Result [1, 4]: Sensitive (Antimicrobial wells with pathogen load detected below the control wells (typically >2 cycle thresholds later) may be reported as Sensitive) | Ct [1, 5]: 27.377 | Molecular Antibiotic Susceptibility Result [1, 6]: Sensitive (Antimicrobial wells with pathogen load detected below the control wells (typically >2 cycle thresholds later) may be reported as Sensitive) | Ct [1, 7]: 36.826 | Ct [1, 8]: 33.684 | Ct [1, 9]: 32.294 | Molecular Antibiotic Susceptibility Result [1, 10]: Sensitive (Antimicrobial wells with pathogen load detected below the control wells (typically >2 cycle thresholds later) may be reported as Sensitive) | Ct [1, 11]: 32.771 | Molecular Antibiotic Susceptibility Result [1, 12]: Sensitive (Antimicrobial wells with pathogen load detected below the control wells (typically >2 cycle thresholds later) may be reported as Sensitive) | Ct [1, 13]: 37.634 | Molecular Antibiotic Susceptibility Result [1, 14]: Sensitive (Antimicrobial wells with pathogen load detected below the control wells (typically >2 cycle thresholds later) may be reported as Sensitive) | Ct [1, 15]: 29.821 | Molecular Antibiotic Susceptibility Result [1, 16]: Sensitive (Antimicrobial wells with pathogen load detected below the control wells (typically >2 cycle thresholds later) may be reported as Sensitive) | Ct [1, 17]: 28.708 | Molecular Antibiotic Susceptibility Result [1, 18]: Sensitive (Antimicrobial wells with pathogen load detected below the control wells (typically >2 cycle thresholds later) may be reported as Sensitive) | Ct [1, 27]: 28.588 | Molecular Antibiotic Susceptibility Result [1, 19]: Sensitive (Antimicrobial wells with pathogen load detected below the control wells (typically >2 cycle thresholds later) may be reported as Sensitive) | Ct [1, 20]: 29.959 | Molecular Antibiotic Susceptibility Result [1, 21]: Resistant | Ct [1, 22]: 12.013 | Molecular Antibiotic Susceptibility Result [1, 23]: Resistant | Ct [1, 24]: 10.329 | Molecular Antibiotic Susceptibility Result [1, 25]: Sensitive (Antimicrobial wells with pathogen load detected below the control wells (typically >2 cycle thresholds later) may be reported as Sensitive) | Ct [1, 26]: 32.477 | Ct at Sensitive Breakpoint (S. aureus): 31.922 | Molecular Antimicrobial Susceptibility Result (S. aureus): Sensitive (Antimicrobial wells with pathogen load detected below the control wells (typically >2 cycle thresholds later) may be reported as Sensitive)

CN(C)[C@@H]1C(O)=C(C(N)=O)C(=O)[C@@]2(O)C(O)=C3C(=O)c4c(O)cccc4[C@@](C)(O)[C@H]3C[C@@H]12 [Tetracycline]
Molecular Antibiotic Susceptibility Result [1, 2]: Sensitive (Antimicrobial wells with pathogen load detected below the control wells (typically >2 cycle thresholds later) may be reported as Sensitive) | Ct [1, 3]: 26.521 | Molecular Antibiotic Susceptibility Result [1, 4]: Sensitive (Antimicrobial wells with pathogen load detected below the control wells (typically >2 cycle thresholds later) may be reported as Sensitive) | Ct [1, 5]: 30.717 | Molecular Antibiotic Susceptibility Result [1, 6]: Resistant | Ct [1, 7]: 21.199 | Molecular Antibiotic Susceptibility Result ([1]; E. faecalis, clinical sample of r100-r106): Resistant | Ct [1, 8]: 20.684 | Ct [1, 9]: 28.789 | Molecular Antibiotic Susceptibility Result [1, 10]: Resistant | Ct [1, 11]: 21.446 | Ct [1, 13]: 21.132 | Molecular Antibiotic Susceptibility Result [1, 14]: Sensitive (Antimicrobial wells with pathogen load detected below the control wells (typically >2 cycle thresholds later) may be reported as Sensitive) | Ct [1, 15]: 30.787 | Molecular Antibiotic Susceptibility Result [1, 16]: Sensitive (Antimicrobial wells with pathogen load detected below the control wells (typically >2 cycle thresholds later) may be reported as Sensitive) | Ct [1, 17]: 27.163 | Molecular Antibiotic Susceptibility Result [1, 18]: Resistant | Ct [1, 27]: 9.923 | Molecular Antibiotic Susceptibility Result [1, 19]: Resistant | Ct [1, 20]: 12.206 | Molecular Antibiotic Susceptibility Result [1, 21]: Resistant | Ct [1, 22]: 10.301 | Molecular Antibiotic Susceptibility Result [1, 23]: Resistant | Ct [1, 24]: 11.498 | Molecular Antibiotic Susceptibility Result [1, 25]: Resistant | Ct [1, 26]: 22.653 | Ct at Sensitive Breakpoint (S. aureus): 18.43 | Molecular Antimicrobial Susceptibility Result (S. aureus): Resistant
